# From patent EP4603105A1, “PHARMACEUTICAL COMPOSITION CONTAINING CYCLIC COMPOUND HAVING SELECTIVE KRAS INHIBITORY EFFECT AGAINST HRAS AND NRAS” (CHUGAI SEIYAKU KABUSHIKI KAISHA, priority 2022, dated 2024)
# Like-named read-outs stand apart in the source and are kept apart here. *1 amine or outer side, *2 acyl side, *3 side chain or, on linkers, in order; H or OH if unused. Where a SMILES comes first, the peptide text is derived from it. Bridges are numbered along the chain shown (N, C = ends). [ ]: non-standard residue; d: D form. The star is where a group is joined. hPhe(3-Cl-4-CF3) = N[C@@H](CCc1ccc(C(F)(F)F)c(Cl)c1)C(=O)O; NPrPhe(4-CF3) = CCCN[C@@H](Cc1ccc(C(F)(F)F)cc1)C(=O)O; X32 = Cc1ccc(C[C@@H](C(=O)[*:2])N(CC2CCCC2)[*:1])cc1; NMeGly(cPent) = CN[C@H](C(=O)O)C1CCCC1; Pro(4,4-F2) = O=C(O)[C@@H]1CC(F)(F)CN1; NMeD = CN[C@@H](CC(=O)O)C(=O)O; NMeL = CN[C@@H](CC(C)C)C(=O)O; Morpholide = C1CN(*)CCO1; NMeA = CN[C@@H](C)C(=O)O; Ac5c = NC1(C(=O)O)CCCC1; Aze = O=C(O)[C@@H]1CCN1; Sar = CNCC(=O)O
# Key:
# [1] = biological target: GDP-bound NRAS wild-type protein (Homo sapiens, UniProt P01111); experiment: Binding to NRAS by surface plasmon resonance (SPR), KD and KD ratio to KRAS
# GDP-bound NRAS wild-type protein, sequence (P01111 whole entry): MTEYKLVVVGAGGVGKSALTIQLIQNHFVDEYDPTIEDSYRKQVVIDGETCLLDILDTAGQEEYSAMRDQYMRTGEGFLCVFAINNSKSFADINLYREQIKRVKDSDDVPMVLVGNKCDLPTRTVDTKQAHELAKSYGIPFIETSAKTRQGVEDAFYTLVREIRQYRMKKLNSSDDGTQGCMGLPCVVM
# How it was run: (§1)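 Compound binding is evaluated by SPR single-cycle kinetics, with concentrations added intermittently from low to high for 75 s each. Target surfaces carry GDP-loaded biotinylated Avi-RAS at about 100–300 RU, regenerated after each cycle; temperature 30°C. A 1:1 binding model gives KD.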
# HRAS wild-type protein = HRAS wild-type protein (Homo sapiens, UniProt P01112); experiment: Binding to HRAS by surface plasmon resonance (SPR), KD and KD ratio to KRAS
# HRAS wild-type protein, sequence (P01112 whole entry): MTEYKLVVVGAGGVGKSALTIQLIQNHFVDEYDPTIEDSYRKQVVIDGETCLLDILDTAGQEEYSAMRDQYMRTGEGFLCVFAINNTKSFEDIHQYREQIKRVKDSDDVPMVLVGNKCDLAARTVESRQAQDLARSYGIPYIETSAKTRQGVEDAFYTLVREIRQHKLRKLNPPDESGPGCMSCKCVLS
# How it was run: as §1
# [2] = tested on: human lung cancer strain NCI-H441; assay type: cell-based
# How it was run: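 Proliferation was scored by […] measured after the reagent was added to cultures kept at 37°C in 5% carbon dioxide.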
# [3] = ratio of the KD value with respect to GDP-bound NRAS wild-type protein to the KD value with respect to KRAS
# [4] = ratio of the KD value with respect to HRAS wild-type protein to the KD value with respect to KRAS
# [5] = ratio of KD for GDP-bound NRAS wild-type protein to KD for KRAS
# [6] = ratio of KD for HRAS wild-type protein to KD for KRAS
SMILES,IC50 [2] [nM],"NRAS /KRAS [1, 3]",HRAS /KRAS (HRAS wild-type protein; [4]),"NRAS /KRAS [1, 5]",HRAS /KRAS (HRAS wild-type protein; [6]),"IC50 ([2]; NCI-H441 cells, 4 days, CellTiter-Glo, read-out: NCl-H441 IC50) [nM]",NRAS /KRAS ([1]; ratio of KD value for GDP-bound NRAS wild-type protein to KD value for KRAS (SPR)),HRAS /KRAS (HRAS wild-type protein; ratio of KD value for HRAS wild-type protein to KD value for KRAS (SPR))
CCO[C@@H]1C[C@H]2C(=O)NC3(CC(C)(C)C3)C(=O)N(C)[C@@H](C3CCCC3)C(=O)N(C)[C@H](C(=O)N(C)CC)CC(=O)N(C)[C@H]3CCCCCCc4ccc(cc4)C[C@@H](C(=O)N(C)CC(=O)N[C@@H](CCc4ccc(C(F)(F)F)c(OC)c4)C(=O)N2C1)N1CC/C=C\C[C@@H](C1=O)N(C)C(=O)CN(C)C(=O)[C@H]([C@@H](C)CC)NC3=O [PP2260],1.9,A (a compound having 10 or more and less than 20 is denoted as A),A (a compound having 10 or more and less than 20 is denoted as A),–,–,–,–,–
CCO[C@@H]1C[C@H]2C(=O)NC3(CC(C)(C)C3)C(=O)N(C)[C@@H](C(CC)CC)C(=O)N(C)[C@H](C(=O)N(C)C)CC(=O)N(C)[C@@H](CC3CCC3)C(=O)N[C@@H]([C@@H](C)CC)C(=O)N(C)CC(=O)N(C)[C@H]3C/C=C\CCN(C3=O)[C@@H](Cc3ccc(C)cc3)C(=O)N(C)CC(=O)N[C@@H](CCc3cc(F)c(C(F)(F)F)c(F)c3)C(=O)N2C1 [PP2151],23.3,A (a compound having 10 or more and less than 20 is denoted as A),A (a compound having 10 or more and less than 20 is denoted as A),–,–,–,–,–
CCC[C@H]1C(=O)N[C@@H](C2CCCC2)C(=O)N(C)CC(=O)N(C)[C@H]2C/C=C\CCN(C2=O)[C@@H](Cc2ccc(C)cc2)C(=O)N(C)CC(=O)N[C@@H](CCc2cc(F)c(C(F)(F)F)c(F)c2)C(=O)N2C[C@H](OCC)C[C@H]2C(=O)NC2(CC(C)(C)C2)C(=O)N(C)[C@@H](CC(C)(C)C)C(=O)N(C)[C@H](C(=O)N(C)C)CC(=O)N1C [PP2989],6.5,–,–,AA (a compound having 20 or more is denoted as AA),A (a compound having 10 or more and less than 20 is denoted as A),–,–,–
C#CC[C@H]1C(=O)N[C@@H]([C@@H](C)CC)C(=O)N(C)CC(=O)N(C)[C@H]2C/C=C\CCN(C2=O)[C@@H](Cc2ccc(C(F)(F)F)cc2)C(=O)N(C)CC(=O)N[C@@H](CCc2ccc(C(F)(F)F)c(OC)c2)C(=O)N2C[C@H](OCC)C[C@H]2C(=O)NC2(CCC2)C(=O)N(C)[C@@H](C2CCCC2)C(=O)N(C)[C@H](C(=O)N(C)CCC)CC(=O)N1C [PP2059],4.9,A (a compound having 10 or more and less than 20 is denoted as A),A (a compound having 10 or more and less than 20 is denoted as A),–,–,–,–,–
CCOC[C@H]1C(=O)N[C@@H]([C@@H](C)CC)C(=O)N(C)CC(=O)N(C)[C@H]2C/C=C\CCN(C2=O)[C@@H](Cc2ccc(C(C)C)cc2)C(=O)N(C)CC(=O)N[C@@H](CCc2ccc(C(F)(F)F)c(OC)c2)C(=O)N2C[C@@H](C)C[C@H]2C(=O)NC2(CC(C)(C)C2)C(=O)N(C)[C@@H](C2CCCC2)C(=O)N(C)[C@H](C(=O)N(C)CC)CC(=O)N1C [PP2701],–,–,–,A (a compound having 10 or more and less than 20 is denoted as A),A (a compound having 10 or more and less than 20 is denoted as A),21.7,–,–
CCCOC[C@H]1C(=O)N[C@@H]([C@@H](C)CC)C(=O)N(C)CC(=O)N(C)[C@H]2C/C=C\CCN(C2=O)[C@@H](Cc2ccc(C(F)(F)F)cc2)C(=O)N(C)CC(=O)N[C@@H](CCc2cc(F)c(C(F)(F)F)c(F)c2)C(=O)N2C[C@H](F)C[C@H]2C(=O)NC2(CC(C)(C)C2)C(=O)N(C)[C@@H](C2CCCC2)C(=O)N(C)[C@H](C(=O)N(C)CCC)CC(=O)N1C [PP1698],5.1,–,–,–,–,–,A (a compound having 10 or more and less than 20 is denoted as A),A (a compound having 10 or more and less than 20 is denoted as A)
CCC[C@H]1C(=O)N[C@@H]([C@@H](C)CC)C(=O)N(C2CC2)CC(=O)N(C)[C@H]2C/C=C\CCN(C2=O)[C@@H](Cc2ccc(C(F)(F)F)cc2)C(=O)N(C)CC(=O)N[C@@H](CCc2ccc(C(F)(F)F)c(OC)c2)C(=O)N2C[C@H](OCC)C[C@H]2C(=O)N(C)C2(CCC2)C(=O)N(C)[C@@H](C2CCCC2)C(=O)N(C)[C@H](C(=O)N2CCCC2)CC(=O)N1C [PP3097],5.4,–,–,A (a compound having 10 or more and less than 20 is denoted as A),A (a compound having 10 or more and less than 20 is denoted as A),–,–,–

# More lines, main results first:
IC50 [2] [nM],SMILES,"NRAS /KRAS [1, 3]",HRAS /KRAS (HRAS wild-type protein; [4]),"NRAS /KRAS [1, 5]",HRAS /KRAS (HRAS wild-type protein; [6]),"IC50 ([2]; NCI-H441 cells, 4 days, CellTiter-Glo, read-out: NCl-H441 IC50) [nM]",NRAS /KRAS ([1]; ratio of KD value for GDP-bound NRAS wild-type protein to KD value for KRAS (SPR)),HRAS /KRAS (HRAS wild-type protein; ratio of KD value for HRAS wild-type protein to KD value for KRAS (SPR))
37.7,CC[C@H](C)[C@@H]1NC(=O)[C@H](C)N(C)C(=O)C[C@@H](C(=O)N2CCOCC2)N(C)C(=O)[C@H](C2CCCC2)N(C)C(=O)C2(CCC2)NC(=O)[C@@H]2CC(F)(F)CN2C(=O)[C@H](CCc2cc(F)c(C(F)(F)F)c(F)c2)NC(=O)CN(C)C(=O)[C@H](Cc2ccc(C(F)(F)F)cc2)N2CCCCC[C@@H](C2=O)N(C)C(=O)CN(C)C1=O [PP0471],B (a compound having 3 or more and less than 10 is denoted as B),B (a compound having 3 or more and less than 10 is denoted as B),–,–,–,–,–
135,CCO[C@@H]1C[C@H]2C(=O)NC3(CCC3)C(=O)N(C)[C@@H](C3CCCC3)C(=O)N(C)[C@H](C(=O)N(C)C)CC(=O)N(C)[C@@H](CC)C(=O)N[C@@H]([C@@H](C)CC)C(=O)N(C)CC(=O)N(C)[C@H]3CCCCCN(C3=O)[C@@H](Cc3ccc(C(F)(F)F)cc3)C(=O)N(C)CC(=O)N[C@@H](CCc3cc(Cl)c(C(F)(F)F)c(Cl)c3)C(=O)N2C1 [PP0989],–,–,B (a compound having 3 or more and less than 10 is denoted as B),B (a compound having 3 or more and less than 10 is denoted as B),–,–,–
162,"CCCN1C(=O)CN(C)C(=O)CNC(=O)[C@H]([C@@H](C)CC)NC(=O)[C@H](CC(C)C)N(C)C(=O)C[C@@H](C(=O)N2CCOCC2)NC(=O)[C@H](C2CCCC2)N(C)C(=O)C2(CCCC2)NC(=O)[C@@H]2CC(F)(F)CN2C(=O)[C@H](CCc2ccc(C(F)(F)F)c(Cl)c2)NC(=O)CN(C)C(=O)[C@@H]1Cc1ccc(C(F)(F)F)cc1 [PP0327] ([NMeL]IG[Sar][NPrPhe(4-CF3)][Sar][hPhe(3-Cl-4-CF3)][Pro(4,4-F2)][Ac5c][NMeGly(cPent)]D-Morpholide; lactam N-11)",–,–,B (a compound having 3 or more and less than 10 is denoted as B),B (a compound having 3 or more and less than 10 is denoted as B),–,–,–
68.4,CC[C@H](C)[C@@H]1NC(=O)[C@H](CC)N(C)C(=O)C[C@@H](C)N(C)C(=O)[C@H](C2CCCC2)N(C)C(=O)C2(CCCC2)NC(=O)[C@@H]2CCCN2C(=O)[C@H](CCc2cc(F)c(C(F)(F)F)c(F)c2)NC(=O)CN(C)C(=O)[C@H](Cc2ccc(C(F)(F)F)cc2)N2CC/C=C\C[C@@H](C2=O)N(C)C(=O)CN(C)C1=O [PP1101],–,–,B (a compound having 3 or more and less than 10 is denoted as B),B (a compound having 3 or more and less than 10 is denoted as B),–,–,–
12.2,CCO[C@@H]1C[C@H]2C(=O)NC3(CCC3)C(=O)N(C)[C@@H](C3CCCC3)C(=O)N(C)[C@H](C(=O)N(C)C)CC(=O)N(C)[C@@H](CC)C(=O)N[C@@H]([C@@H](C)CC)C(=O)N(C)CC(=O)N(C)[C@H]3CCCCN(C3=O)[C@@H](Cc3ccc(C(F)(F)F)cc3)C(=O)N(C)CC(=O)N[C@@H](CCc3cc(Cl)c(C(F)(F)F)c(Cl)c3)C(=O)N2C1 [PP0985],–,–,C (A compound having a KD ratio of 0.1 or more and less than 3 is denoted as C),C (A compound having a KD ratio of 0.1 or more and less than 3 is denoted as C),–,–,–
85.6,CCO[C@@H]1C[C@H]2C(=O)NC3(CCC3)C(=O)N(C)[C@@H](C3CCCC3)C(=O)N(CCC3CCC3)[C@H](C(=O)N(C)C)CC(=O)N(C)[C@@H](CC)C(=O)N[C@@H]([C@@H](C)CC)C(=O)N(C)CC(=O)N(C)[C@H]3CCCCCN(C3=O)[C@@H](Cc3ccc(C(F)(F)F)cc3)C(=O)N(C)CC(=O)N[C@@H](CCc3cc(F)c(C(F)(F)F)c(F)c3)C(=O)N2C1 [PP0635],B (a compound having 3 or more and less than 10 is denoted as B),B (a compound having 3 or more and less than 10 is denoted as B),–,–,–,–,–
50,CC[C@H](C)[C@@H]1NC(=O)[C@H](CC(C)C)N(C)C(=O)C[C@@H](C(=O)N2CCOCC2)N(C)C(=O)[C@H](C2CCCC2)N(C)C(=O)C2(CCCC2)NC(=O)[C@@H]2CCCN2C(=O)[C@H](CCc2ccc(C(F)(F)F)c(Cl)c2)NC(=O)CN(C)C(=O)[C@H](Cc2ccc(C)cc2)N(CC2CCCC2)C(=O)[C@@H]2CCN2C(=O)[C@H](C)N(C)C1=O [PP0084] ([NMeL]I[NMeA][Aze][X32][Sar][hPhe(3-Cl-4-CF3)]P[Ac5c][NMeGly(cPent)][NMeD]-Morpholide; lactam N-11),–,–,C (A compound having a KD ratio of 0.1 or more and less than 3 is denoted as C),B (a compound having 3 or more and less than 10 is denoted as B),–,–,–
1570,CC[C@H](C)[C@@H]1NC(=O)[C@H](CC(C)C)N(C)C(=O)C[C@@H](C(=O)N2CCOCC2)N(C)C(=O)[C@H](C2CCCC2)N(C)C(=O)C2(CCCC2)NC(=O)[C@@H]2[C@@H](O)CCN2C(=O)[C@H](CCc2cc(F)c(C(F)(F)F)c(F)c2)NC(=O)CN(C)C(=O)[C@H](Cc2ccc(C(F)(F)F)cc2)N2CCCCC[C@@H](C2=O)N(C)C(=O)CN(C)C1=O [PP0662],B (a compound having 3 or more and less than 10 is denoted as B),B (a compound having 3 or more and less than 10 is denoted as B),–,–,–,–,–
